Test results published in PMC10709440, “High-throughput ligand profile characterization in novel cell lines expressing seven heterologous insect olfactory receptors for the detection of volatile plant biomarkers” (Scientific Reports, 2023).
“And” between values parts separate entries of the source, which are not always exact repeats. Equal values may be shown once. Read-outs that look alike come from different tables or passages of the source.

Key:
OR85b = test system: OR85b; design: method as in earlier work; settings: DoOR database value; ref DoOR; cited from earlier work
OR10a = test system: OR10a; design: method as in earlier work; settings: DoOR database value; ref DoOR; cited from earlier work
OR47a = test system: OR47a; design: method as in earlier work; settings: DoOR database value; ref DoOR; cited from earlier work
OR13a = test system: OR13a; design: method as in earlier work; settings: DoOR database value; ref DoOR; cited from earlier work
OR98a = test system: OR98a; design: method as in earlier work; settings: DoOR database value; ref DoOR; cited from earlier work
OR49b = test system: OR49b; design: method as in earlier work; settings: DoOR database value; ref DoOR; cited from earlier work
OR71a = test system: OR71a; design: method as in earlier work; settings: DoOR database value; ref DoOR; cited from earlier work
Drosophila OR85b = target: T1, Drosophila OR85b (Drosophila melanogaster, UniProt Q9VHQ7); assay: Calcium ion fluorescence (GCaMP6) assay, OR85b stable HEK293 cell line; type: cell-based; settings: for Average response: OR85b cell line, VUAA1-normalized response, mean of biological replicates
T1 construct: expressed in transfected cells
T1 sequence (Q9VHQ7 1-390): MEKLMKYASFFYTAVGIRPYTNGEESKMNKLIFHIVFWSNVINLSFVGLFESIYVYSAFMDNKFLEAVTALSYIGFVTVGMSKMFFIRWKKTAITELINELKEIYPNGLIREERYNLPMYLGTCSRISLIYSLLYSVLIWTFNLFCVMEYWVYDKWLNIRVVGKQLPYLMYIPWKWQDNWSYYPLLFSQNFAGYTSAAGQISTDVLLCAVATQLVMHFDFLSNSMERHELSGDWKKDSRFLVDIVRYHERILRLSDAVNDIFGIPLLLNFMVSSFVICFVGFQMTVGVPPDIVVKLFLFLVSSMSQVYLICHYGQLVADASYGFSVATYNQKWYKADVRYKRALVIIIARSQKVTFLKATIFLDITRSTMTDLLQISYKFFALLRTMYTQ
T1 sequence (Q9VNB5 1-486 partner): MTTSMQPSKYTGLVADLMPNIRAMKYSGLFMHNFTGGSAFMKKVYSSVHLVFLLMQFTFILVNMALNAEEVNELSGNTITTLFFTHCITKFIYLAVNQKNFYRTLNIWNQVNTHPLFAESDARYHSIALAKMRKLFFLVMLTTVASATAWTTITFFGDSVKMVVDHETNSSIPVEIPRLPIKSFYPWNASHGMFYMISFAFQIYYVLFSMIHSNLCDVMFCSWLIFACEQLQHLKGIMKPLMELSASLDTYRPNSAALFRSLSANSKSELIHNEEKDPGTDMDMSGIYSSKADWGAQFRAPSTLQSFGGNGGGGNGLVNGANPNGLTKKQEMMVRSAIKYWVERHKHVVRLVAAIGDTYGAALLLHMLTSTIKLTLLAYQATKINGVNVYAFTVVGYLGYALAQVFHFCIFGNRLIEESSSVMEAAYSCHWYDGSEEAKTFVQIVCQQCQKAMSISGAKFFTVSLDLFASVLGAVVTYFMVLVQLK
How it was run: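 HEK293 lines stably expressing each Drosophila OR with GCaMP6, doxycycline-induced (1 μg/mL) 48 or 72 h. Fluorescence recorded 5 s baseline then 30 s after VOC injection at pH 7.3; ΔF=(FMAX−F0)/F0, normalized to 50 µM VUAA1 response per line, triplicate wells averaged; concentration series 0.01–100 μM.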

[1] = HEK293, read-out: OR85b Average response (VUAA1-normalized)
[2] = HEK293, read-out: OR85b response (VUAA1-normalized response)
[3] = VOC concentration 0.15 (unit not given)
[4] = VOC concentration 0.3 (unit not given)
[5] = VOC concentration 0.6 (unit not given)
[6] = VOC concentration 1.25 (unit not given)
[7] = VOC concentration 2.5 (unit not given)
[8] = VOC concentration 5 (unit not given)
[9] = VOC concentration 10 (unit not given)
[10] = VOC concentration 20 (unit not given)
[11] = VOC concentration 40 (unit not given)
[12] = VOC concentration 60 (unit not given)
[13] = VOC concentration 80 (unit not given)
[14] = VOC concentration 100 (unit not given)
[15] = concentration 1, normalized fluorescence change, values below 0.05 threshold given as 0
[16] = concentration 10, normalized fluorescence change, values below 0.05 threshold given as 0
[17] = concentration 100, normalized fluorescence change, values below 0.05 threshold given as 0

## CCCCCC(C)=O [2-heptanone]
OR85b
  OR85b DoOR response: 0.65
OR10a
  OR10a DoOR response: 0.016
OR47a
  OR47a DoOR response: 0.58
OR13a
  OR13a DoOR response: 0.26
OR98a
  OR98a DoOR response: 0.62
OR49b
  OR49b DoOR response: 0.011
OR71a
  OR71a DoOR response: 0.045
Drosophila OR85b; AVERAGE EC50, from average LOG EC50, N 5
  EC50: 68.9 µM
Drosophila OR85b; EC50 (fitted parameter), individual biological replicates
  EC50: 50.9 µM and 47.5 µM and 41.7 µM and 42.2 µM
Drosophila OR85b; EC50, AVERAGE, arithmetic average of 5 replicate EC50
  EC50: 110 µM
Drosophila OR85b; EC50, FITTED AVERAGE CURVE, fit to the average curve
  EC50: 72.2 µM
Drosophila OR85b; EC50, OR85b cell line, fitted Hill equation, Hill coefficient constrained to 1, maximal response max 1
  EC50: 68.9 µM
Drosophila OR85b; [1]
  activation at 1 µM: 4%
  activation at 10 µM: 20%
  activation at 100 µM: 55%
Drosophila OR85b; [2]
  activation at 1 µM: 0%
  activation at 10 µM: 20%
  activation at 100 µM: 55%
Drosophila OR85b; HEK293, read-out: VUAA1 normalized MAX response
  Emax: 72%
Drosophila OR85b; LOG EC50 (fitted parameter), individual biological replicates, OR85b D-R sheet
  EC50: 50.9 µM and 47.5 µM and 41.7 µM and 42.2 µM
Drosophila OR85b; LOG EC50, AVERAGE, average of 5 biological replicates
  EC50: 68.9 µM
Drosophila OR85b; cc. 1 µM
  Average response: 0.037
Drosophila OR85b; cc. 10 µM
  Average response: 0.20
Drosophila OR85b; cc. 100 µM
  Average response: 0.55
Drosophila OR85b; [3]
  response, AVERAGE: 0
  response, biological replicates: 0
Drosophila OR85b; [4]
  response, AVERAGE: 0
  response, biological replicates: 0
Drosophila OR85b; [5]
  response, AVERAGE: 0.02418
  response, biological replicates: 0 (3×) and 0.06045 (2×)
Drosophila OR85b; [6]
  response, AVERAGE: 0
  response, biological replicates: 0
Drosophila OR85b; [7]
  response, AVERAGE: 0
  response, biological replicates: 0
Drosophila OR85b; [8]
  response, AVERAGE: 0.05175
  response, biological replicates: 0 (2×) and 0.08029 and 0.08922 (2×)
Drosophila OR85b; [9]
  response, AVERAGE: 0.07565
  response, biological replicates: 0.1715 and 0 and 0.05971 and 0.07351 (2×)
Drosophila OR85b; [10]
  response, AVERAGE: 0.1574
  response, biological replicates: 0.2412 and 0.05753 and 0.1726 and 0.1579 (2×)
Drosophila OR85b; [11]
  response, AVERAGE: 0.2822
  response, biological replicates: 0.4423 and 0.101 and 0.2153 and 0.3264 (2×)
Drosophila OR85b; [12]
  response, AVERAGE: 0.3295
  response, biological replicates: 0.5597 and 0.152 and 0.2767
Drosophila OR85b; [13]
  response, AVERAGE: 0.3923
  response, biological replicates: 0.6627 and 0.1546 and 0.3278 and 0.4082 (2×)
Drosophila OR85b; [14]
  response, AVERAGE: 0.3199
  response, biological replicates: 0.2321 and 0.3319 and 0.3577 (2×)
Drosophila OR85b; average of 5 biological replicates
  AVERAGE MAX: 0.7284
Drosophila OR85b; [15]
  DF norm AVERAGE OR85b: 0
Drosophila OR85b; [16]
  DF norm AVERAGE OR85b: 0.1962
Drosophila OR85b; [17]
  DF norm AVERAGE OR85b: 0.5508
Drosophila OR85b; fit to the average curve
  MAX, fitted average curve: 0.6682
Drosophila OR85b; individual biological replicates
  MAX (fitted parameter): 1 (2×) and 0.5003 and 0.5695 and 0.5722

## CCCCCC(O)CC (stereo not drawn) [3-octanol]
OR85b
  OR85b DoOR response: 0.68
OR10a
  OR10a DoOR response: 0.12
OR47a
  OR47a DoOR response: 0.47
OR13a
  OR13a DoOR response: 0.58
OR98a
  OR98a DoOR response: 0.59
OR49b
  OR49b DoOR response: 0.03
OR71a
  OR71a DoOR response: 0.01
Drosophila OR85b; [2]
  activation at 1 µM: 0%
  activation at 10 µM: 0%
  activation at 100 µM: 0%
Drosophila OR85b; cc. 1 µM
  Average response: 0.00
Drosophila OR85b; cc. 10 µM
  Average response: 0.00
Drosophila OR85b; cc. 100 µM
  Average response: 0.0171
Drosophila OR85b; [15]
  DF norm AVERAGE OR85b: 0
Drosophila OR85b; [16]
  DF norm AVERAGE OR85b: 0
Drosophila OR85b; [17]
  DF norm AVERAGE OR85b: 0

## Cc1ccc(O)cc1 [4-methylphenol]
OR85b
  OR85b DoOR response: 0.37
OR10a
  OR10a DoOR response: 0.24
OR47a
  OR47a DoOR response: -0.037
OR13a
  OR13a DoOR response: 0.019
OR98a
  OR98a DoOR response: 0.085
OR49b
  OR49b DoOR response: 0.43
OR71a
  OR71a DoOR response: 0.64
Drosophila OR85b; [2]
  activation at 1 µM: 0%
  activation at 10 µM: 0%
  activation at 100 µM: 0%
Drosophila OR85b; cc. 1 µM
  Average response: 0.00
Drosophila OR85b; cc. 10 µM
  Average response: 0.04
Drosophila OR85b; cc. 100 µM
  Average response: 0.00
Drosophila OR85b; [15]
  DF norm AVERAGE OR85b: 0
Drosophila OR85b; [16]
  DF norm AVERAGE OR85b: 0
Drosophila OR85b; [17]
  DF norm AVERAGE OR85b: 0

## CC(=O)c1ccccc1 [acetophenone]
OR85b
  OR85b DoOR response: 0.04
OR10a
  OR10a DoOR response: 0.64
OR47a
  OR47a DoOR response: 0.11
OR13a
  OR13a DoOR response: 0.02
OR98a
  OR98a DoOR response: 0.21
OR49b
  OR49b DoOR response: 0.07
OR71a
  OR71a DoOR response: 0.05
Drosophila OR85b; [2]
  activation at 1 µM: 0%
  activation at 10 µM: 0%
  activation at 100 µM: 0%
Drosophila OR85b; cc. 1 µM
  Average response: 0.00
Drosophila OR85b; cc. 10 µM
  Average response: 0.00
Drosophila OR85b; cc. 100 µM
  Average response: 0.00
Drosophila OR85b; ligand concentration 1 (unit not given), threshold 0.05, below shown as 0
  DF norm AVERAGE OR85b: 0
Drosophila OR85b; ligand concentration 10 (unit not given), threshold 0.05, below shown as 0
  DF norm AVERAGE OR85b: 0
Drosophila OR85b; ligand concentration 100 (unit not given), threshold 0.05, below shown as 0
  DF norm AVERAGE OR85b: 0
